Source: patent US20170216225A1, “METHOD FOR ANTICOAGULATION” (priority 2016, published 2017)

What was measured:
Assay type in all cases: in vivo
rats = assay: Tolerability of IA in rats; settings: 1 mL of 30,000 ppm IA
Text: (§1) In other words, IA is not harmful to the health of mammals even at high doses.

[1] = tested on: extrinsic pathway of coagulation system; assay: Prothrombin time (PT) of plasma from IA-treated mice
Experimental: The 5- to 6-week old male C57BL/6JNar1 mice having body weights around 20 g were purchased from National Laboratory Animal Center, Taipei, Taiwan.
Coagulation system in blood is composed of intrinsic and extrinsic pathways. The intrinsic pathway is assayed by activated thromboplastin time (aPTT) and the extrinsic pathway is assayed by prothrombin time (PT). Following intraperitoneal injection of various dose of IA, plasma was obtained at different periods of time and was assayed for aPTT and PT. aPTT and PT were assayed in a Stago ST4 coagulation analyzer (ST art 4, Diagnostica Stago, France).
By carbon dioxide anesthesia of mice, blood was obtained by cardiac puncture using 3.2% sodium citrate mixing with blood at a ratio of 1:9. The blood was centrifuged at 2000g/rpm for 10 minutes to get the mouse plasma, which was assayed immediately.
PT was assayed in 4-fold dilution of PT reagent, composed of four parts including one part of PT reagent, one part of 25 mM CaCl solution, and two parts of sterile water. In PT assay, 0.1 mL of plasma was put into each of 4 barrette cuvette, each of which had one steel ball, and was kept at 37° C. for 1 min in Stago ST4 coagulation analyzer. Then, 0.2 mL of the diluted PT reagent was added for PT detection.
Moreover, to investigate the anticoagulation effect in the extrinsic pathway of coagulation system in the IA-treated mice, the PT was measured at different treatment times. Different groups of mice (n=6) were respectively intraperitoneally injected with 1 mL of 1000 ppm ([…]) IA, blood was drawn 1 hr, 2 hr, 3 hr, and 24 hr after IA injection. Ten mice were injected with vehicle (n=10) and were served as controls. Then, the PT of each group was measured. FIG. 3A is a diagram of Table 2-1.
To investigate the anticoagulation effect in the extrinsic pathway of coagulation system in the IA-treated mice, the PT was also measured under different doses of IA. Various doses of IA (1 ppm, 10 ppm, 100 ppm, 1,000 ppm) in 1 mL, were intraperitoneally injected into different groups of mice (n=6), respectively. Plasma was separated 3 hr later. Ten mice were injected with vehicle and were served as controls. The PT of each group was measured. FIG. 3B is a diagram of Table 2-2.

mice = assay: Tolerability of intraperitoneal IA in mice
Text: as §1

[2] = tested on: intrinsic pathway of coagulation system; assay: Activated partial thromboplastin time (aPTT) of plasma from IA-treated mice
Experimental: The 5- to 6-week old male C57BL/6JNar1 mice having body weights around 20 g were purchased from National Laboratory Animal Center, Taipei, Taiwan. Coagulation system in blood is composed of intrinsic and extrinsic pathways. The intrinsic pathway is assayed by activated thromboplastin time (aPTT) and the extrinsic pathway is assayed by prothrombin time (PT). Following intraperitoneal injection of various dose of IA, plasma was obtained at different periods of time and was assayed for aPTT and PT. aPTT and PT were assayed in a Stago ST4 coagulation analyzer (ST art 4, Diagnostica Stago, France). By carbon dioxide anesthesia of mice, blood was obtained by cardiac puncture using 3.2% sodium citrate mixing with blood at a ratio of 1:9. The blood was centrifuged at 2000g/rpm for 10 minutes to get the mouse plasma, which was assayed immediately. aPTT was assayed in 4-fold dilution of aPTT r reagent using kit-provided buffer solution as diluent. In aPTT assay, 0.1 mL of plasma was kept warm for 1 min at 37° C. in a barrette of 4 cuvettes in Stago ST4 coagulation analyzer, then 0.1 mL of 4 fold-diluted aPTT reagent and one steel ball were added and waited for 180 seconds. Finally, 0.1 mL of 25 mM CaCl2 solution was added for aPTT detection. To investigate the anticoagulation effect in the intrinsic pathway of coagulation system in the IA-treated mice, the aPTT was measured at different treatment times. Mouse (n=6) was intraperitoneally injected with 1 mL of 1000 ppm ([…]) IA, blood was drawn 1 hr, 2 hr, 3 hr, and 24 hr after IA injection. Ten mice were injected with vehicle (n=10) and were served as controls. Then, the aPTT of each group was measured. FIG. 2A is a diagram of Table 1-1. To investigate the anticoagulation effect in the intrinsic pathway of coagulation system the IA-treated mice, the aPTT was also measured under different doses of IA. Various doses of IA (1 ppm, 10 ppm, 100 ppm, 1,000 ppm) in 1 mL, were intraperitoneally injected into different groups of mice (n=6), respectively. Plasma was separated 3 hr later. Ten mice were injected with vehicle and were served as controls. The aPTT of each group was measured. FIG. 2B is a diagram of Table 1-2.

[3] = 1 mL i.p., 3 hr after injection
[4] = 1 mL of 1000 ppm (0.05 mL/kg) IA i.p., treatment time 1 hr
[5] = 1 mL of 1000 ppm (0.05 mL/kg) IA i.p., treatment time 2 hr
[6] = 1 mL of 1000 ppm (0.05 mL/kg) IA i.p., treatment time 3 hr
[7] = 1 mL of 1000 ppm (0.05 mL/kg) IA i.p., treatment time 24 hr
[8] = injected dose 1 ppm in 1 mL i.p., 3 hr after injection
[9] = injected dose 10 ppm in 1 mL i.p., 3 hr after injection
[10] = injected dose 100 ppm in 1 mL i.p., 3 hr after injection
[11] = injected dose 1000 ppm in 1 mL i.p., 3 hr after injection

Compound: CC(C)CCN [IA, 3-methyl-1-butanamine]
- Physiological state after IA (rats): normal physiological state can also be maintained
- Dose at which PT was obviously prolonged (statistical meaning) [1, 3]: 1000 ppm
- Mean of PT [1, 4]: 11.6 s
- Mean of PT [1, 5]: 12.2 s
- Mean of PT [1, 6]: 12.6 s
- Mean of PT [1, 7]: 13.2 s
- Treatment time after which PT prolongation has statistical meaning ([1]; 1 mL of 1000 ppm IA i.p.): 2 h
- Mean of PT [1, 8]: 11.2 s
- Mean of PT [1, 9]: 11.4 s
- Mean of PT [1, 10]: 11.5 s
- Mean of PT [1, 11]: 12.6 s
- Tolerance of intraperitoneal injection (mice; BALB/C mice (20 g), 1 mL of 20,000 ppm (0.1 mL/kg) i.p.): could tolerate
- Physiological state after IA (mice; mice, 1 mL of 1,000 ppm (0.05 mL/kg) IA): normal physiological state can be maintained
- Lowest dose with anticoagulation effect in the intrinsic pathway (aPTT prolonged, statistical meaning) [2, 3]: 1 ppm
- Mean of aPTT [2, 4]: 30.8 s
- Mean of aPTT [2, 5]: 32.0 s
- Mean of aPTT [2, 6]: 33.7 s
- Mean of aPTT [2, 7]: 34.8 s
- Treatment time after which aPTT prolongation has statistical meaning ([2]; 1 mL of 1000 ppm IA i.p.): 1 h
- Mean of aPTT [2, 8]: 33.0 s
- Mean of aPTT [2, 9]: 33.0 s
- Mean of aPTT [2, 10]: 33.4 s
- Mean of aPTT [2, 11]: 33.7 s
